Test results as given in patent US11484608B2, “Non-invasive assessment of hepatic mitochondrial metabolism by positional isotopomer NMR tracer analysis (PINTA)” (YALE UNIVERSITY, priority 2017, dated 2022).

How the values were obtained:
[1] = test system: primary mouse hepatocytes; assay: In vitro glucose production, VPC and lipolysis in isolated hepatocytes; format: cell-based
In short: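 Primary mouse hepatocytes were plated and cultured overnight in low-glucose DMEM, with 10% FBS for glucose production or serum-free 0.5% BSA medium for lipolysis. Media were then collected after 8 hr at 37° C for glucose, NEFA and glycerol, and VPC was derived as the PINTA VPC/VEGP ratio × glucose production. Agents were present through the 8-hr assay, and values were normalized to total protein and expressed as fold change vs vehicle.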

[2] = test system: hepatic mitochondrial oxidation, NAFLD, glucose tolerance; assay: Chronic 10-day glucagon infusion in high fat fed rats; format: in vivo, rat
Protocol: During week 3 of the diet, rats underwent surgery under isoflurane anesthesia to place catheters in the jugular vein and carotid artery, and recovery was confirmed by regaining the pre-surgical body weight prior to in vivo studies. […] Rats were fasted for 8 hr prior to sacrifice with IV pentobarbital.
In the rat studies, blood was collected from the jugular venous catheter. In both species, samples were immediately centrifuged (12,000 rpm) to separate plasma from red blood cells. PINTA analysis of hepatic mitochondrial fluxes was employed in both rats and mice (see Example 1). Briefly, mice were infused with a two-hour primed (5 min, 3×)-continuous infusion of [3-^13C] lactate (40 μmol kg^−1 min^−1) and [1,2,3,4,5,6,6-^2H7] glucose (0.1 mg kg^−1 min^−1). Rats were infused with lactate at the same rate, as well as [3-^3H] glucose (0.1 mCi kg^−1 min^−1). At the conclusion of the study, animals were euthanized with IV pentobarbital.
In the glucose tolerance tests, rodents were injected with 1 g kg^−1 50% dextrose (rats) or 10% dextrose (mice) intraperitoneally. Blood samples were taken through the venous catheter (rats) or by tail bleeding (mice) for measurement of plasma glucose and insulin concentrations as described below (Biochemical analysis).
Plasma glucose concentrations were measured using a YSI Glucose Analyzer. […] Plasma NEFA concentrations were measured using the Wako NEFA assay, while plasma glycerol and plasma and liver amino acid concentrations were measured by GC/MS. […] Protein concentrations were measured by Western blot, using antibodies from Santa Cruz (PC, PEPCK, CAMKII), Cell Signaling (ATGL, pCAMKIV, CAMKIV, pCRTC2, CRTC2, pACC, ACC, pAMPK, AMPK, pHSL, HSL, GAPDH, and β-actin), Novus Biologicals (pCAMKII), Abcam (pATGL), LSBio (pInsP3R-I), and BD Transduction Laboratories (InsP3R-II, InsP3R-III, PKCε). The antibody to pATGL was kindly provided by Dr. Hei Sook Sul, while the antibody to total InsP3R-I was custom-made using an epitope against the last 18 amino acids of InsP3R-I. Gluconeogenic gene mRNA expression was measured by qPCR^45 using primers sequences as follows: […]

[3] = isolated WT hepatocytes, 100 nM glucagon, 8 hr
[4] = HFD rats, two hours after withdrawal of glucagon infusion
[5] = intraperitoneal glucose tolerance test, HFD rats
[6] = rat liver, chronic glucagon infusion
[7] = rats, chronic glucagon infusion

glucagon
increases in NEFA and glycerol production ([1]; WT hepatocytes, glucagon, not InsP3R-I deficient): 60-100% | increase in VPC flux [1, 3]: two-fold | increase in glucose production [1, 3]: two-fold | food intake, body weight, and hepatic ceramide content ([2]; HFD rats, chronic glucagon): similar | hepatic VPK flux ([2]; HFD rats, chronic glucagon): did not change | hepatic VPK flux as proportion of hepatic VPC flux ([2]; HFD rats, chronic glucagon): 15-20% | liver glycogen content ([2]; HFD rats, chronic glucagon): reductions | protein kinase C-epsilon (PKCε) translocation ([2]; HFD rats, chronic glucagon): marked reductions | reductions in hepatic triglyceride and diacylglycerol concentrations ([2]; HFD rats, chronic glucagon): 50-90% | hepatic acetyl- and malonyl-CoA content ([2]; HFD rats, glucagon withdrawn four hours before sacrifice): suppression | increase in rates of hepatic mitochondrial oxidation ([2]; HFD rats, ten days glucagon 5 ng kg^−1 min^−1): two-fold | reductions in fasting plasma glucose [2, 4]: 1.4 mM | reductions in fasting plasma insulin concentrations [2, 4]: 50% | reduction in glucose area under the curve [2, 5]: 20% | reduction in insulin area under the curve [2, 5]: 60% | Cytosolic DAG C16, C16 [2, 6]: 1.8 ± 0.2 nmol/g | Cytosolic DAG C16, C18_2 [2, 6]: 7.2 ± 1.0 nmol/g | Cytosolic DAG C16 C20_4 [2, 6]: 0.5 ± 0.1 nmol/g | Cytosolic DAG C18, C16 [2, 6]: 1.7 ± 0.1 nmol/g | Cytosolic DAG C18, C18 [2, 6]: 5.6 ± 0.6 nmol/g | Cytosolic DAG C18 C20_4 [2, 6]: 13.6 ± 1.1 nmol/g | Cytosolic DAG C18_1, C18 [2, 6]: 0.6 ± 0.1 nmol/g | Cytosolic DAG C18_1, C18_1 [2, 6]: 4.2 ± 0.5 nmol/g | Cytosolic DAG C18_1, C18_2 [2, 6]: 4.0 ± 0.5 nmol/g | Cytosolic DAG C18_1 C16 [2, 6]: 5.3 ± 0.9 nmol/g | Cytosolic DAG C18_2, C18 [2, 6]: 0.9 ± 0.1 nmol/g | Cytosolic DAG C18_2, C18_2 [2, 6]: 3.6 ± 0.6 nmol/g | Cytosolic DAG C20_4 C20_5 [2, 6]: 0.5 ± 0.1 nmol/g | Cytosolic DAG Total DAG [2, 6]: 38.3 ± 3.1 nmol/g | Membrane DAG C16, C16 [2, 6]: 10.2 ± 2.6 nmol/g | Membrane DAG C16, C18_2 [2, 6]: 97.3 ± 13.4 nmol/g | Membrane DAG C16 C20_4 [2, 6]: 4.2 ± 0.7 nmol/g | Membrane DAG C18, C16 [2, 6]: 4.9 ± 0.5 nmol/g | Membrane DAG C18, C18 [2, 6]: 6.5 ± 0.5 nmol/g | Membrane DAG C18 C20_4 [2, 6]: 21.5 ± 2.4 nmol/g | Membrane DAG C18_1, C18 [2, 6]: 3.6 ± 0.4 nmol/g | Membrane DAG C18_1, C18_1 [2, 6]: 44.1 ± 7.2 nmol/g | Membrane DAG C18_1, C18_2 [2, 6]: 58.7 ± 7.8 nmol/g | Membrane DAG C18_1 C16 [2, 6]: 50.0 ± 9.0 nmol/g | Membrane DAG C18_2, C18 [2, 6]: 7.8 ± 0.7 nmol/g | Membrane DAG C18_2, C18_2 [2, 6]: 44.0 ± 10.7 nmol/g | Membrane DAG Total DAG [2, 6]: 364.0 ± 44.7 nmol/g | Ceramide C16 [2, 7]: 40.1 ± 10.2 nmol/g | Ceramide C18 [2, 7]: 7.1 ± 1.4 nmol/g | Ceramide C20 [2, 7]: 15.9 ± 3.7 nmol/g | Ceramide C22 [2, 7]: 26.9 ± 5.2 nmol/g | Ceramide C24 [2, 7]: 52.8 ± 10.9 nmol/g | Ceramide C24:1 [2, 7]: 15.2 ± 3.9 nmol/g | Total ceramide [2, 7]: 158.0 ± 33.4 nmol/g | increases in hepatic mitochondrial fat oxidation (VFAO) ([2]; short-term continuous glucagon treatment): two-fold
